Measured values published in PMC11992225, “Antibacterial compounds against non-growing and intracellular bacteria” (npj Antimicrobials and Resistance, 2025).
“And” between values parts separate entries of the source, which are not always exact repeats. Identical values can stand only once.

Key:
[1] = tested on: non-growing S. aureus DSM2569; assay: Dose-dependent killing analysis (CFU spot-plating) of stationary-phase S. aureus; type: cell-based, Staphylococcus aureus; details: at 10 µM, 24 h treatment
Description: To determine the spectrum of activity of the compounds that were effective against non-growing UPEC, we further assessed their efficacy against the well-characterized Gram-negative and Gram-positive reference strains P. aeruginosa DSM1117 and S. aureus DSM2569, respectively. The cultures were grown and treated for 24 h in 1:4 CA-MHB (pH 7.4). […].
(§1) For survival analysis, bacteria were cultivated as described for the dose–response dilution-regrowth assay. Assays with UPEC were conducted at the CBCS screening facility using 96-well plates with a 200 μl sample volume, and compounds were dispensed using the Echo® (Labcyte) system. P. aeruginosa and S. aureus samples were treated according to the protocol used for the dilution-regrowth experiments. Treated samples were serially diluted 10-fold in PBS, and 10 μl drops were spot-plated onto rectangular LB agar plates using either a Beckman NXP robot (for UPEC) or an Integra VIAFLO96 electronic pipette (for P. aeruginosa and S. aureus). The LB agar plates were incubated overnight at 37 °C and scanned. Colonies were counted at the spots of the lowest dilution where individual colonies could be accurately distinguished. Each colony was manually marked on a separate image layer using the GNU Image Manipulation Program, and counted using NIST’s Integrated Colony Enumerator (NICE 1.4) software. The experiments were performed in three biological replicates.

[2] = tested on: intracellular S. flexneri 5a M90T in TC7 cells; assay: microbe, parasite or virus in culture; type: cell-based, Shigella flexneri; details: for IC50: Shigella flexneri, TC7, 14 h
[3] = tested on: non-growing P. aeruginosa DSM1117; assay: Dose-dependent killing analysis (CFU spot-plating) of stationary-phase P. aeruginosa; type: cell-based, Pseudomonas aeruginosa; details: P. aeruginosa; for log10(CFU/ml) of treated nongrowing bacteria (single replicates): before treatment 8.887
Description: The cultures were grown and treated for 24 h in 1:4 CA-MHB (pH 7.4).
as §1

[4] = tested on: non-growing UPEC CFT073; assay: Dose-dependent killing analysis (CFU spot-plating) of stationary-phase UPEC; type: cell-based, Escherichia coli
Method in brief: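 Non-growing (stationary-phase) UPEC CFT073 treated with compounds in 96-well format at 200 μl, then 10-fold serially diluted in PBS and 10 μl spots plated on LB agar. Plates incubated overnight at 37 °C; colonies counted at lowest resolvable dilution to give CFU. Three biological replicates.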

[5] = TC7 cells infected with GFP-expressing S. flexneri, 14 h treatment
[6] = E. coli in 1:4 CA-MHB (pH 7.4), drug concentration 0.25
[7] = E. coli in 1:4 CA-MHB (pH 7.4), drug concentration 0.25, before treatment 8.977
[8] = E. coli in 1:4 CA-MHB (pH 7.4), drug concentration 0.5
[9] = E. coli in 1:4 CA-MHB (pH 7.4), drug concentration 0.5, before treatment 8.977
[10] = E. coli in 1:4 CA-MHB (pH 7.4), drug concentration 1
[11] = E. coli in 1:4 CA-MHB (pH 7.4), drug concentration 1, before treatment 8.977
[12] = E. coli in 1:4 CA-MHB (pH 7.4), drug concentration 2.5
[13] = E. coli in 1:4 CA-MHB (pH 7.4), drug concentration 2.5, before treatment 8.977
[14] = E. coli in 1:4 CA-MHB (pH 7.4), drug concentration 5
[15] = E. coli in 1:4 CA-MHB (pH 7.4), drug concentration 5, before treatment 8.977
[16] = E. coli in 1:4 CA-MHB (pH 7.4), drug concentration 10
[17] = E. coli in 1:4 CA-MHB (pH 7.4), drug concentration 10, before treatment 8.977

CCCCC(CC)CNC(=N)NC(=N)NCCCCCCNC(=N)NC(=N)NCC(CC)CCCC (stereo not shown) [Alexidine]
reduction of non-growing S. aureus [1]: below the limit of detection

C[C@@H]1CN(c2c(F)c(N)c3c(=O)c(C(=O)O)cn(C4CC4)c3c2F)C[C@H](C)N1 [Sparfloxacin]
MIC:IC50 ratio ([2]; S. flexneri MIC in TSB versus intracellular IC50): > 2 | IC50 [2]: 12 nM | Fluorescence intensity (RFU), Mean, 0.25 x MIC [2, 5]: 5576.79 RFU | Fluorescence intensity (RFU), Mean, 0.5 x MIC [2, 5]: 4270.29 RFU | Fluorescence intensity (RFU), Mean, 2 x MIC [2, 5]: 2726.47 RFU | Fluorescence intensity (RFU), Mean, 4 x MIC [2, 5]: 2375.69 RFU | Fluorescence intensity (RFU), Mean, 8 x MIC [2, 5]: 1916.33 RFU | Fluorescence intensity (RFU), Mean, 16 x MIC [2, 5]: 1615.39 RFU | Fluorescence intensity (RFU), Mean, 32 x MIC [2, 5]: 1554.53 RFU | Fluorescence intensity (RFU), Mean, MIC [2, 5]: 2934.67 RFU | killing, average Δlog10(CFU/ml) ([3]; drug concentration 0.1): 0.268 log10(CFU/ml) | log10(CFU/ml) of treated nongrowing bacteria (single replicates) ([3]; drug concentration 0.1): 8.602 log10(CFU/ml) and 9.079 log10(CFU/ml) and 8.176 log10(CFU/ml) | killing, average Δlog10(CFU/ml) ([3]; drug concentration 0.5): 0.923 log10(CFU/ml) | log10(CFU/ml) of treated nongrowing bacteria (single replicates) ([3]; drug concentration 0.5): 8.114 log10(CFU/ml) and 8.000 log10(CFU/ml) and 7.778 log10(CFU/ml) | killing, average Δlog10(CFU/ml) ([3]; drug concentration 2.5): 3.104 log10(CFU/ml) | log10(CFU/ml) of treated nongrowing bacteria (single replicates) ([3]; drug concentration 2.5): 5.903 log10(CFU/ml) and 6.845 log10(CFU/ml) and 4.602 log10(CFU/ml) | killing, average Δlog10(CFU/ml) ([3]; drug concentration 10): 4.887 log10(CFU/ml) | log10(CFU/ml) of treated nongrowing bacteria (single replicates) ([3]; drug concentration 10): =<4 log10(CFU/ml) | killing, average Δlog10(CFU/ml) [4, 6]: 0.241 log10(CFU/ml) | log10(CFU/ml) of treated nongrowing bacteria (single replicates) [4, 7]: 8.954 log10(CFU/ml) and 8.778 log10(CFU/ml) and 8.477 log10(CFU/ml) | killing, average Δlog10(CFU/ml) [4, 8]: 0.055 log10(CFU/ml) | log10(CFU/ml) of treated nongrowing bacteria (single replicates) [4, 9]: 9.114 log10(CFU/ml) and 8.699 log10(CFU/ml) and 8.954 log10(CFU/ml) | killing, average Δlog10(CFU/ml) [4, 10]: 0.246 log10(CFU/ml) | log10(CFU/ml) of treated nongrowing bacteria (single replicates) [4, 11]: 9.114 log10(CFU/ml) and 8.301 log10(CFU/ml) and 8.778 log10(CFU/ml) | killing, average Δlog10(CFU/ml) [4, 12]: 0.077 log10(CFU/ml) | log10(CFU/ml) of treated nongrowing bacteria (single replicates) [4, 13]: 9.380 log10(CFU/ml) and 8.477 log10(CFU/ml) and 8.845 log10(CFU/ml) | killing, average Δlog10(CFU/ml) [4, 14]: 0.562 log10(CFU/ml) | log10(CFU/ml) of treated nongrowing bacteria (single replicates) [4, 15]: 8.602 log10(CFU/ml) and 8.342 log10(CFU/ml) and 8.301 log10(CFU/ml) | killing, average Δlog10(CFU/ml) [4, 16]: 1.084 log10(CFU/ml) | log10(CFU/ml) of treated nongrowing bacteria (single replicates) [4, 17]: 8.301 log10(CFU/ml) and 7.602 log10(CFU/ml) and 7.778 log10(CFU/ml)

N[C@@H]1[C@H]2CN(c3nc4c(cc3F)c(=O)c(C(=O)O)cn4-c3ccc(F)cc3F)C[C@@H]12 [Trovafloxacin]
IC50 [2]: 37 nM | Fluorescence intensity (RFU), Mean, 0.125 x MIC ([2]; TC7 cells infected with GFP-expressing S. flexneri, 14 h treatment, 0.125 x MIC): 8837.54 RFU | Fluorescence intensity (RFU), Mean, 0.25 x MIC [2, 5]: 8024.79 RFU | Fluorescence intensity (RFU), Mean, 0.5 x MIC [2, 5]: 6129.12 RFU | Fluorescence intensity (RFU), Mean, 2 x MIC [2, 5]: 2933.5 RFU | Fluorescence intensity (RFU), Mean, 4 x MIC [2, 5]: 2559.17 RFU | Fluorescence intensity (RFU), Mean, 8 x MIC [2, 5]: 2016.56 RFU | Fluorescence intensity (RFU), Mean, 16 x MIC [2, 5]: 1696.44 RFU | Fluorescence intensity (RFU), Mean, 32 x MIC [2, 5]: 1579.94 RFU | Fluorescence intensity (RFU), Mean, MIC [2, 5]: 3277.92 RFU | killing, average Δlog10(CFU/ml) ([3]; drug concentration 0.1): 0.236 log10(CFU/ml) | log10(CFU/ml) of treated nongrowing bacteria (single replicates) ([3]; drug concentration 0.1): 8.699 log10(CFU/ml) and 8.954 log10(CFU/ml) and 8.301 log10(CFU/ml) | killing, average Δlog10(CFU/ml) ([3]; drug concentration 0.5): 0.717 log10(CFU/ml) | log10(CFU/ml) of treated nongrowing bacteria (single replicates) ([3]; drug concentration 0.5): 7.954 log10(CFU/ml) (2×) and 8.602 log10(CFU/ml) | killing, average Δlog10(CFU/ml) ([3]; drug concentration 2.5): 1.077 log10(CFU/ml) | log10(CFU/ml) of treated nongrowing bacteria (single replicates) ([3]; drug concentration 2.5): 7.778 log10(CFU/ml) and 7.954 log10(CFU/ml) and 7.699 log10(CFU/ml) | killing, average Δlog10(CFU/ml) ([3]; drug concentration 10): 1.687 log10(CFU/ml) | log10(CFU/ml) of treated nongrowing bacteria (single replicates) ([3]; drug concentration 10): 7.301 log10(CFU/ml) (2×) and 7.000 log10(CFU/ml) | killing, average Δlog10(CFU/ml) [4, 6]: 0.343 log10(CFU/ml) | log10(CFU/ml) of treated nongrowing bacteria (single replicates) [4, 7]: 9.041 log10(CFU/ml) and 8.447 log10(CFU/ml) and 8.415 log10(CFU/ml) | killing, average Δlog10(CFU/ml) [4, 8]: 0.539 log10(CFU/ml) | log10(CFU/ml) of treated nongrowing bacteria (single replicates) [4, 9]: 8.699 log10(CFU/ml) and 8.362 log10(CFU/ml) and 8.255 log10(CFU/ml) | killing, average Δlog10(CFU/ml) [4, 10]: 0.839 log10(CFU/ml) | log10(CFU/ml) of treated nongrowing bacteria (single replicates) [4, 11]: 8.255 log10(CFU/ml) and 8.204 log10(CFU/ml) and 7.954 log10(CFU/ml) | killing, average Δlog10(CFU/ml) [4, 12]: 1.866 log10(CFU/ml) | log10(CFU/ml) of treated nongrowing bacteria (single replicates) [4, 13]: 7.255 log10(CFU/ml) and 6.903 log10(CFU/ml) and 7.176 log10(CFU/ml) | killing, average Δlog10(CFU/ml) [4, 14]: 2.103 log10(CFU/ml) | log10(CFU/ml) of treated nongrowing bacteria (single replicates) [4, 15]: 7.146 log10(CFU/ml) and 6.699 log10(CFU/ml) and 6.778 log10(CFU/ml) | killing, average Δlog10(CFU/ml) [4, 16]: 2.608 log10(CFU/ml) | log10(CFU/ml) of treated nongrowing bacteria (single replicates) [4, 17]: 6.462 log10(CFU/ml) and 6.322 log10(CFU/ml) (2×) | killing, average Δlog10(CFU/ml) ([4]; E. coli in LPM (pH 5.5), drug concentration 0.25): 0.094 log10(CFU/ml) | log10(CFU/ml) of treated nongrowing bacteria (single replicates) ([4]; E. coli in LPM (pH 5.5), drug concentration 0.25, before treatment 7.350): 7.146 log10(CFU/ml) and 6.544 log10(CFU/ml) and 8.079 log10(CFU/ml) | killing, average Δlog10(CFU/ml) ([4]; E. coli in LPM (pH 5.5), drug concentration 0.5): 0.009 log10(CFU/ml) | log10(CFU/ml) of treated nongrowing bacteria (single replicates) ([4]; E. coli in LPM (pH 5.5), drug concentration 0.5, before treatment 7.350): 7.146 log10(CFU/ml) and 6.732 log10(CFU/ml) and 8.146 log10(CFU/ml) | killing, average Δlog10(CFU/ml) ([4]; E. coli in LPM (pH 5.5), drug concentration 1): 0.00468 log10(CFU/ml) | log10(CFU/ml) of treated nongrowing bacteria (single replicates) ([4]; E. coli in LPM (pH 5.5), drug concentration 1, before treatment 7.350): 7.255 log10(CFU/ml) and 6.740 log10(CFU/ml) and 8.041 log10(CFU/ml) | killing, average Δlog10(CFU/ml) ([4]; E. coli in LPM (pH 5.5), drug concentration 2.5): 0.225 log10(CFU/ml) | log10(CFU/ml) of treated nongrowing bacteria (single replicates) ([4]; E. coli in LPM (pH 5.5), drug concentration 2.5, before treatment 7.350): 7.230 log10(CFU/ml) and 6.447 log10(CFU/ml) and 7.699 log10(CFU/ml) | killing, average Δlog10(CFU/ml) ([4]; E. coli in LPM (pH 5.5), drug concentration 5): 0.336 log10(CFU/ml) | log10(CFU/ml) of treated nongrowing bacteria (single replicates) ([4]; E. coli in LPM (pH 5.5), drug concentration 5, before treatment 7.350): 6.699 log10(CFU/ml) and 6.763 log10(CFU/ml) and 7.580 log10(CFU/ml) | killing, average Δlog10(CFU/ml) ([4]; E. coli in LPM (pH 5.5), drug concentration 10): 0.963 log10(CFU/ml) | log10(CFU/ml) of treated nongrowing bacteria (single replicates) ([4]; E. coli in LPM (pH 5.5), drug concentration 10, before treatment 7.350): 6.146 log10(CFU/ml) and 6.415 log10(CFU/ml) and 6.602 log10(CFU/ml)
